Assay results: PubChem BioAssay AID1963420 (Molecular Pharmacology Branch, DTP, NCI, 2024)
pIC50: −log10 of the molar value.

System: 494315-158-R-J1-PDC complex spheroid growth, percent test/control
Assay: Anticancer human tumor 494315-158-R-J1-PDC patient-derived soft tissue sarcoma cell line growth inhibition [Asc]
Settings: for pIC50: curve of first compound; for viability, T/C: stronger effect = lower value
In short: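 Stromal components (HUVEC and hMSC) are co-assembled with the cancer cells into multicellular spheroids. Drugs are then added singly or paired, at concentrations falling by half-log increments from a clinically achievable maximum, capped at 10 microM without known Cmax.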

[1] = second compound 0.1 µM, first compound 0.00316 µM
[2] = second compound 0.1 µM, first compound 0.01 µM
[3] = second compound 0.1 µM, first compound 0.0316 µM
[4] = second compound 0.1 µM, first compound 0.1 µM
[5] = second compound 0.316 µM, first compound 0.00316 µM
[6] = second compound 0.316 µM, first compound 0.01 µM
[7] = second compound 0.316 µM, first compound 0.0316 µM
[8] = second compound 0.316 µM, first compound 0.1 µM
[9] = second compound 1 µM, first compound 0.00316 µM
[10] = second compound 1 µM, first compound 0.01 µM
[11] = second compound 1 µM, first compound 0.0316 µM
[12] = second compound 1 µM, first compound 0.1 µM
[13] = second compound 3.16 µM, first compound 0.00316 µM
[14] = second compound 3.16 µM, first compound 0.01 µM
[15] = second compound 3.16 µM, first compound 0.0316 µM
[16] = second compound 3.16 µM, first compound 0.1 µM
[17] = second compound 10 µM, first compound 0.00316 µM
[18] = second compound 10 µM, first compound 0.01 µM
[19] = second compound 10 µM, first compound 0.0316 µM
[20] = second compound 10 µM, first compound 0.1 µM
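Also: compound exposure lasted seven days after spheroids formed for three days.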

COc1c(OCCCN2CCOCC2)ccc2c3n(c(=NC(=O)c4cnc(N)nc4)nc12)CCN3 + Cc1c(S(C)(=O)=O)c(-c2cc(F)cc(N3CCN(c4ccc(NS(=O)(=O)c5ccc(NC(CCN6CCC(C(=O)OCCCP(=O)(O)O)CC6)CSc6ccccc6)c(S(=O)(=O)C(F)(F)F)c5)cc4)CC3)c2)c(-c2ccc(Cl)cc2)n1C(C)C
pIC50 (second compound 0.1 µM): 7.42
pIC50 (second compound 0.316 µM): 7.83
pIC50 (second compound 1 µM): 7.78
pIC50 (second compound 3.16 µM): 8.50
pIC50 (second compound 10 µM): 8.03
viability, T/C [1]: 69.7%
viability, T/C [2]: 60.7%
viability, T/C [3]: 55.6%
viability, T/C [4]: 29.8%
viability, T/C (second compound 0.1 µM, first compound 0.316 µM): 18%
viability, T/C (second compound 0.1 µM, first compound 1 µM): 12.9%
viability, T/C [5]: 67.6%
viability, T/C [6]: 56.1%
viability, T/C [7]: 37.6%
viability, T/C [8]: 32.1%
viability, T/C (second compound 0.316 µM, first compound 0.316 µM): 15.8%
viability, T/C (second compound 0.316 µM, first compound 1 µM): 11.1%
viability, T/C [9]: 68.3%
viability, T/C [10]: 58%
viability, T/C [11]: 39.5%
viability, T/C [12]: 26.6%
viability, T/C (second compound 1 µM, first compound 0.316 µM): 14%
viability, T/C (second compound 1 µM, first compound 1 µM): 10.7%
viability, T/C [13]: 49.7%
viability, T/C [14]: 45%
viability, T/C [15]: 32.7%
viability, T/C [16]: 21.4%
viability, T/C (second compound 3.16 µM, first compound 0.316 µM): 12.5%
viability, T/C (second compound 3.16 µM, first compound 1 µM): 8.31%
viability, T/C [17]: 69.3%
viability, T/C [18]: 49%
viability, T/C [19]: 31.2%
viability, T/C [20]: 21.1%
viability, T/C (second compound 10 µM, first compound 0.316 µM): 12.8%
viability, T/C (second compound 10 µM, first compound 1 µM): 9.05%

NC(=O)C(=Cn1cnc(-c2cc(C(F)(F)F)cc(C(F)(F)F)c2)n1)c1cncnc1 + Cc1c(S(C)(=O)=O)c(-c2cc(F)cc(N3CCN(c4ccc(NS(=O)(=O)c5ccc(NC(CCN6CCC(C(=O)OCCCP(=O)(O)O)CC6)CSc6ccccc6)c(S(=O)(=O)C(F)(F)F)c5)cc4)CC3)c2)c(-c2ccc(Cl)cc2)n1C(C)C
pIC50 (second compound 0.1 µM): 7.63
pIC50 (second compound 0.316 µM): 7.91
pIC50 (second compound 1 µM): 8.18
pIC50 (second compound 3.16 µM): 8.50
pIC50 (second compound 10 µM): 8.00
viability, T/C (second compound 0.1 µM, first compound 0.000949 µM): 79.5%
viability, T/C (second compound 0.1 µM, first compound 0.003 µM): 82.6%
viability, T/C (second compound 0.1 µM, first compound 0.00949 µM): 66.8%
viability, T/C (second compound 0.1 µM, first compound 0.03 µM): 44.9%
viability, T/C (second compound 0.1 µM, first compound 0.0949 µM): 19.2%
viability, T/C (second compound 0.1 µM, first compound 0.3 µM): 6.1%
viability, T/C (second compound 0.316 µM, first compound 0.000949 µM): 72.7%
viability, T/C (second compound 0.316 µM, first compound 0.003 µM): 65.4%
viability, T/C (second compound 0.316 µM, first compound 0.00949 µM): 51.3%
viability, T/C (second compound 0.316 µM, first compound 0.03 µM): 40.7%
viability, T/C (second compound 0.316 µM, first compound 0.0949 µM): 23.2%
viability, T/C (second compound 0.316 µM, first compound 0.3 µM): 4.23%
viability, T/C (second compound 1 µM, first compound 0.000949 µM): 53.7%
viability, T/C (second compound 1 µM, first compound 0.003 µM): 57.8%
viability, T/C (second compound 1 µM, first compound 0.00949 µM): 46.2%
viability, T/C (second compound 1 µM, first compound 0.03 µM): 35.1%
viability, T/C (second compound 1 µM, first compound 0.0949 µM): 16.3%
viability, T/C (second compound 1 µM, first compound 0.3 µM): 4.03%
viability, T/C (second compound 3.16 µM, first compound 0.000949 µM): 52.2%
viability, T/C (second compound 3.16 µM, first compound 0.003 µM): 52.2%
viability, T/C (second compound 3.16 µM, first compound 0.00949 µM): 41.8%
viability, T/C (second compound 3.16 µM, first compound 0.03 µM): 24%
viability, T/C (second compound 3.16 µM, first compound 0.0949 µM): 12.9%
viability, T/C (second compound 3.16 µM, first compound 0.3 µM): 2.93%
viability, T/C (second compound 10 µM, first compound 0.000949 µM): 67.4%
viability, T/C (second compound 10 µM, first compound 0.003 µM): 58%
viability, T/C (second compound 10 µM, first compound 0.00949 µM): 54.7%
viability, T/C (second compound 10 µM, first compound 0.03 µM): 29.2%
viability, T/C (second compound 10 µM, first compound 0.0949 µM): 14.8%
viability, T/C (second compound 10 µM, first compound 0.3 µM): 2.12%

NC1CCC(NC2CC2c2ccccc2)CC1 (stereo not given) + Cc1c(S(C)(=O)=O)c(-c2cc(F)cc(N3CCN(c4ccc(NS(=O)(=O)c5ccc(NC(CCN6CCC(C(=O)OCCCP(=O)(O)O)CC6)CSc6ccccc6)c(S(=O)(=O)C(F)(F)F)c5)cc4)CC3)c2)c(-c2ccc(Cl)cc2)n1C(C)C
pIC50 (second compound 0.1 µM): < 7.00
pIC50 (second compound 0.316 µM): < 7.00
pIC50 (second compound 1 µM): 8.03
pIC50 (second compound 3.16 µM): 9.47
pIC50 (second compound 10 µM): < 7.00
viability, T/C (second compound 0.1 µM, first compound 0.000316 µM): 72.5%
viability, T/C (second compound 0.1 µM, first compound 0.001 µM): 71.3%
viability, T/C [1]: 78.8%
viability, T/C [2]: 68.5%
viability, T/C [3]: 74.6%
viability, T/C [4]: 72.9%
viability, T/C (second compound 0.316 µM, first compound 0.000316 µM): 56.4%
viability, T/C (second compound 0.316 µM, first compound 0.001 µM): 61.5%
viability, T/C [5]: 61%
viability, T/C [6]: 57.6%
viability, T/C [7]: 64.5%
viability, T/C [8]: 61.8%
viability, T/C (second compound 1 µM, first compound 0.000316 µM): 53.3%
viability, T/C (second compound 1 µM, first compound 0.001 µM): 67.5%
viability, T/C [9]: 61.7%
viability, T/C [10]: 47.9%
viability, T/C [11]: 44.4%
viability, T/C [12]: 55.6%
viability, T/C (second compound 3.16 µM, first compound 0.000316 µM): 49.9%
viability, T/C (second compound 3.16 µM, first compound 0.001 µM): 47.4%
viability, T/C [13]: 43.6%
viability, T/C [14]: 43%
viability, T/C [15]: 39.8%
viability, T/C [16]: 47.5%
viability, T/C (second compound 10 µM, first compound 0.000316 µM): 58%
viability, T/C (second compound 10 µM, first compound 0.001 µM): 58.6%
viability, T/C [17]: 57.9%
viability, T/C [18]: 57.6%
viability, T/C [19]: 57.1%
viability, T/C [20]: 56%
